Data: EP1994944A1, “Polymer conjugate compounds for the inhibition of apoptosis” (Laboratorios SALVAT, S.A., priority 2007, dated 2008)
Marks after values point to notes of the source that are not given here.

Columns and labels:
Caspase activity = test: Caspase inhibition assay (time-dependent, Ac-DEVD-afc substrate) in cultured cells; type: cell-based; conditions: Saos-2, 50 µM drug-eq., apoptosis induced by doxycyclin 2 µM, vs non-treated cells
Description: The time-dependent inhibition of caspase induced by the compounds described in this invention was analyzed. Cell lines were grown in the presence or absence of compounds (50 µM) at different times. Caspase activity was assayed using Saos-2 or U937 cultured cell lines and Ac-DEVD-afc (N-acetyl-Asp-Glu-Val-Asp-afc(7-amino-4-trifluoromethyl coumarin)) as substrate (20 µM). For Saos-2 cell line, apoptosis induction was carried out by the addition of doxycyclin 2 µM; in the case of U937, apoptosis was induced by doxorubicin 0.25 µM. Caspase activity was continuously monitored by the liberation of fluorescent afc using a Cytofluor 4000 fluorimeter (excitation 400 nm; emission 508 nm) for 2 hour. The effect of the compounds on the caspase activity was expressed as the percentage of inhibition in the fluorescence signal of treated cells vs the non-treated cells (control). As control is shown the activity of the previously described conjugate with diglycil linker (named as diglycil)

Cathepsin B [1] = target: T1, Cathepsin B (Homo sapiens, UniProt P07858); test: Degradation on incubation with Cathepsin B: Mw loss and drug release profile from PGA-conjugate; type: in vitro ADME; conditions: Cathepsin B (5 U), pH 6 buffer, 37°C; for 50% drug release t: determined by HPLC; for 50% Mw Loss t: determined by Size Exclusion Chromatography (SEC)
Description: Aqueous solutions of I.1 (1 mg/mL) were prepared, and an aliquot (100 µL) was added to a polypropylene tube and made up to 1 mL with water. The pH of the samples was adjusted to 8 with ammonium formate buffer (100 µL, 1 M, pH 8.5), and then CHCl3 (5 mL) was added. Samples were then thoroughly extracted by vortexing (3 x 10 sec). The […] layer was carefully removed and the solvent was evaporated under N2. The dry residue was dissolved in 200 µL of HPLC grade acetonitrile. In parallel the same procedure was carried out for the parent compound II.1 (using 200µL of a 1 mg/mL stock aqueous solution). Addition of 1 mL of acetonitrile to redissolve the product gave a 200 µg/mL stock from which a range of concentrations was prepared (2 to 100 µg/mL). The free amount of drug in the conjugates was determined by HPLC using a Lichrospher® C18 (150 x 3.9 mm) column. Flow rate 1 mL/min using an acetonitrile gradient in aqueous 0.1 % TFA (from 10 to 90% of acetonitrile in 25 min). The retention time was tr = 22.5 min for II.1 (λ = 220 nm) and tr = 22.0 for II.2.
Cathepsin B (5 U) was added last to a solution of 3 mg PGA or PGA-conjugate I in 1 mL of a pH 6 buffer composed by 20 mM sodium acetate, 2 mM EDTA and 5 mM DTT. Incubation was carried out at 37°C. Aliquots (150 µL) were taken at times up to 72 h, immediately frozen in liquid nitrogen, and stored frozen in the dark until assayed by HPLC (analysis of 100 µL aliquots after extraction procedure) and/or GPC (direct analysis of 50 µL aliquots). In control experiments polymers were incubated in buffer alone (without addition of cathepsin B) to assess non-enzymatic hydrolytic cleavage. In addition, free drug (0.75 mg/mL) was also incubated under same conditions and later used as the reference control. HPLC Evaluation of Released Drug (VIIIa, I.1 or I.2) The extraction method described above to determine free drug content of the conjugate samples was also used here. Mass analysis of the released compounds was carried out by MALDI TOF TOF. GPC Evaluation of Polymer Mw loss. The 50 µL aliquots were diluted up to 200 µL with buffer (PBS) and the Mw determined by GPC using PEG standards. Generally degradation profiles for biomedical polymers are obtained under constant sink conditions and the results correlated with mass loss of the polymer. Since PGA polymers are water soluble, the relative peak areas used in the GPC derived molecular weight calculations provided a suitable alternative to indicate the relative amount of the polymer that remained at each timepoint. As the polymer degraded there was a notable loss of I (PGA-conjugate) molecular weight. Therefore, the loss with time of the area under the curve (AUC) for I and PGA (XII) was considered to evaluate the rate of backbone degradation. […]

Cathepsin B [2] = target: T1, Cathepsin B; conditions: reference value from Vicent MJ and Pérez-Payá, J. Med. Chem. 2006, 49, 3763-3765, cited from earlier work

Substance	% Caspase Inhibition (Caspase activity; Time 24 h) [%]	% Caspase Inhibition (Caspase activity; Time 48 h) [%]	% Caspase Inhibition (Caspase activity; Time 72 h) [%]	50% drug release t (Cathepsin B [1]) [h]	50% Mw Loss t (Cathepsin B [1]) [h]	50% drug release t (h) (Cathepsin B [2]; determined by HPLC)	50% Mw Loss t (h) (Cathepsin B [2]; determined by SEC)
Poly-L-glutamic acid [2-(2-Amino-3-phenylpropionylamino)-N-{[({carbamoylmethyl-[2-(2,4-dichlorophenyl)ethyl]carbamoyl}methyl)-(3,3-diphenylpropyl)carbamoyl]-methyl}-N-[2-(2,4-dichlorophenyl)ethyl]-3-methylbutyramide] conjugate [I.1]	23	65	100	0.7	5		
Poly-L-glutamic acid [2-Amino-4-methylpentanoic acid (1-{{[({carbamoylmethyl-[2-(2,4-dichlorophenyl)ethyl]carbamoyl}methyl)-(3,3-diphenylpropyl)carbamoyl]methyl}-[2-(2,4-dichlorophenyl)ethyl]carbamoyl}-2-methylpropyl)amide] conjugate [I.2]	65	100	100	20	30		
Poly-L-glutamic acid [2-Amino-pentanoic acid (1-{{[({carbamoyl[2-(2,4-chlorophenyl)ethyl]carbamoyl}methyl)-(3,3-diphenylpropyl)carbamoyl]methyl}-[2-(2,4-dichlorophenyl)ethyl]carbamoyl}-2-methylpropyl)amide] conjugate [diglycil, reference compound]	67	72	100			30^c h	60^c h
